Key:
K562-TAX = test: MTS cytotoxicity assay, 72 h, K562-TAX; format: cell-based
Protocol: (§1) Based on the preliminary results and tests of a larger library of known triterpenoids, a small set of 2-substituted lupane and 18α-oleanane derivatives was designed and synthesized. As the first step, the cytotoxic activity of the synthesized derivatives was assessed using an MTS assay following 72 h of treatment (Table 1). Selected cell lines A549 (lung adenocarcinoma) and DU-145 (prostate cancer) are both dependent on Hh signaling. In addition, K562 (chronic myelogenous leukemia) was included as a cell line sensitive to Hh inhibitors[32] and a type of hematological malignancy with active Hh signaling.[33] MRC-5 lung fibroblasts and BJ human skin fibroblasts cell lines were used to evaluate the toxicity against nontumor cells. Compounds were also tested using the standard panel of other cancer cell lines, as described in our earlier work (Table 1).[27]
(§2) The human prostate tumor-derived cell line DU145 was obtained from ATCC (American Type Culture Collection) and cultured in RPMI 1640 (Roswell Park Memorial Institute) medium supplemented with 10% (v/v) fetal bovine serum (FBS). Human prostate tumor-derived LNCaP cells were obtained from ATCC and cultured in RPMI 1640 medium supplemented with 10% FBS. The human nonsmall cell lung carcinoma (NSCLC)-derived cell line HOP-62 was obtained from the DSMZ (German Collection of Microorganisms and Cell Cultures) and cultured in RPMI 1640 medium supplemented with 10% FBS. The human nonsmall cell lung carcinoma-derived cell line NCI-H322 was obtained from ECACC (European Collection of Authenticated Cell Cultures) and cultured in RPMI 1640 medium supplemented with 10% FBS. The human nonsmall cell lung carcinoma-derived cell line NCI-H522 was obtained from ATCC and cultured in RPMI 1640 medium supplemented with 10% FBS. The human lung tumor-derived cell line A549 was obtained from ATCC and cultured in Dulbecco’s Modified Eagle’s Medium (DMEM) supplemented with 10% FBS. The human medulloblastoma-derived cell line DAOY was obtained from ATCC and cultured in Eagle’s Minimum Essential Medium (EMEM) supplemented with 10% FBS. The human glioblastoma-derived cell line T98G was obtained from ATCC and cultured in EMEM medium supplemented with 10% FBS, 1 mmol/L sodium pyruvate, and 1 mmol/L nonessential amino acid mixture. All the above-mentioned cell lines were cultured at 37 °C in an atmosphere of 5% CO2 with 95% humidity. The cytotoxicity MTS assays were performed using MTS (3-(4,5-dimethylthiazol-2-yl)-5-(3-carboxymethoxyphenyl)-2-(4-sulfophenyl)-2H-tetrazolium) tetrazolium salt. Briefly, cells were seeded in a 384-well transparent plate in a volume of 25 μL and a concentration of 15,000 cells/mL (DU145, LNCaP, HOP-62, A549, DAOY, T98G) or 30,000 cells/mL (NCI-H322, NCI-H522). The next day, cells were exposed to compounds in a concentration range of 50–0.0975 μmol/L (dilution factor 2) and cultured in the presence of the compounds for 72 h. After 72 h, 5 μL of MTS/phenazine methosulfate solution was pipetted into each well and incubation continued for 1–4 h. Finally, the absorbance at 490 nm was measured using an EnVision multifunctional modular reader (PerkinElmer). The IC50 value was determined using Dotmatics software.

CEM-DNR = test: MTS cytotoxicity assay, 72 h, CEM-DNR; format: cell-based; conditions: Homo sapiens
Protocol: as §1, with “1).[27] […]” for “1).[27]”

[1] = tested on: BJ human skin fibroblasts; test: MTS cytotoxicity assay, 72 h, BJ fibroblasts; format: cell-based; conditions: normal fibroblasts; for IC50: Homo sapiens, Skin fibroblast
Protocol: as §1, §2

HCT116 p53–/– = test: MTS cytotoxicity assay, 72 h, HCT116 p53–/–; format: cell-based; conditions: Homo sapiens, HCT-116, 72 h
Protocol: as §1, §2

U2OS = test: MTS cytotoxicity assay, 72 h, U2OS; format: cell-based; conditions: Homo sapiens
Protocol: as §1, §2

DU-145 (prostate cancer) = test: MTS cytotoxicity assay, 72 h, DU-145; format: cell-based, human; conditions: Homo sapiens, DU-145, 72 h
Protocol: as §1, §2

[2] = tested on: K562 (chronic myelogenous leukemia); test: MTS cytotoxicity assay, 72 h, K562; format: cell-based; conditions: Homo sapiens
Protocol: as §1, §2

HCT 116 = test: MTS cytotoxicity assay, 72 h, HCT 116; format: cell-based; conditions: Homo sapiens, HCT-116, 72 h
Protocol: as §1, §2

[3] = tested on: A549 (lung adenocarcinoma); test: MTS cytotoxicity assay, 72 h, A549; format: cell-based; conditions: Homo sapiens, A549, 72 h
Protocol: as §1, §2

CCRF-CEM = test: MTS cytotoxicity assay, 72 h, CCRF-CEM; format: cell-based; conditions: for IC50: Homo sapiens, CCRF-CEM, 72 h, MTS
Protocol: as §1, §2

MRC-5 lung fibroblasts = test: MTS cytotoxicity assay, 72 h, MRC-5 fibroblasts; format: cell-based, human; conditions: normal fibroblasts; for IC50: Homo sapiens, MRC5, 72 h
Protocol: as §1, §2

[4] = CCRF-CEM vs average of BJ and MRC-5, full Table S1
[5] = IC50 of CCRF-CEM line vs average of both fibroblasts (BJ and MRC-5), Table 1

Structure (SMILES) | IC50 (K562-TAX; Table 1) | IC50 (CEM-DNR; Table 1) | IC50 ([1]; Table 1) | IC50 (HCT116 p53–/–; Table 1) | IC50 (U2OS; Table 1) | IC50 (DU-145 (prostate cancer); Table 1) | IC50 (DU-145 (prostate cancer); full Table S1) | IC50 ([2]; Table 1) | IC50 (HCT 116; Table 1) | IC50 (K562-TAX; full Table S1) | IC50 (CEM-DNR; full Table S1) | IC50 ([1]; full Table S1) | IC50 (HCT116 p53–/–; full Table S1) | IC50 (U2OS; full Table S1) | IC50 ([2]; full Table S1) | IC50 (HCT 116; full Table S1) | IC50 ([3]; full Table S1) | SI (selectivity index) (CCRF-CEM; [4]) | IC50 (CCRF-CEM; full Table S1) | IC50 (MRC-5 lung fibroblasts; full Table S1) | further results
CC1(C)C(=O)C(c2cncc3ccccc23)=C[C@@]2(C)C1CC[C@]1(C)C2CCC2C3[C@H]4OC[C@@]3(CCC4(C)C)CC[C@]21C (stereo partly drawn) [Compound 4l, 2-(Isoquinolin-4-yl)-19β,28-epoxyolean-1-en-3-one] | > 50 µM | > 50 µM | > 50 µM | > 50 µM | > 50 µM | 32 µM | 32.1 µM | > 50 µM | > 50 µM | – | – | – | – | – | – | – | – | – | – | – | IC50 ([3]; Table 1): > 50 µM; IC50 (CCRF-CEM; Table 1): > 50 µM; IC50 (MRC-5 lung fibroblasts; Table 1): > 50 µM
C=C(C)[C@@H]1CC[C@]2(C(=O)OCc3ccccc3)CC[C@]3(C)C(CCC4[C@@]5(C)C=C(c6cc7ccccc7s6)C(=O)C(C)(C)C5CC[C@]43C)C12 (stereo partly shown) [Compound 10k, Benzyl 2-(Benzo[b]thien-2-yl)-3-oxolupa-1,20(29)-dien-28-oate] | – | – | – | – | – | – | > 50 µM | – | – | > 50 µM | > 50 µM | > 50 µM | > 50 µM | > 50 µM | > 50 µM | > 50 µM | > 50 µM | > 1.0 | > 50 µM | > 50 µM | –
CC1(C)C(=O)C(c2ccco2)=C[C@@]2(C)C1CC[C@]1(C)C2CCC2C3[C@H]4OC[C@@]3(CCC4(C)C)CC[C@]21C (stereo partly drawn) [Compound 4a, 2-(Furan-2-yl)-19β,28-epoxyolean-1-en-3-one] | – | – | – | – | – | – | > 50 µM | – | – | > 50 µM | > 50 µM | > 50 µM | > 50 µM | > 50 µM | > 50 µM | > 50 µM | > 50 µM | > 1.0 | > 50 µM | > 50 µM | –
CC1(C)C(=O)C(c2ccc3[nH]ccc3c2)=C[C@@]2(C)C1CC[C@]1(C)C2CCC2C3[C@H]4OC[C@@]3(CCC4(C)C)CC[C@]21C (stereo partly drawn) [Compound 4m, 2-(Indol-5-yl)-19β,28-epoxyolean-1-en-3-one] | > 50 µM | > 50 µM | > 50 µM | > 50 µM | > 50 µM | 26 µM | 25.8 µM | > 50 µM | > 50 µM | – | – | – | – | – | – | – | – | – | 26.1 µM | – | IC50 ([3]; Table 1): > 50 µM; IC50 (CCRF-CEM; Table 1): 26 µM; SI (selectivity index) (CCRF-CEM; [5]): >1.9; IC50 (MRC-5 lung fibroblasts; Table 1): > 50 µM
C=C(C)[C@@H]1CC[C@]2(C(=O)OCc3ccccc3)CC[C@]3(C)C(CCC4[C@@]5(C)C=C(c6cncc7ccccc67)C(=O)C(C)(C)C5CC[C@]43C)C12 (stereo partly shown) [Compound 10l, Benzyl 2-(4-Isoquinoline)-3-oxolupa-1,20(29)-dien-28-oate] | – | – | – | – | – | – | > 50 µM | – | – | > 50 µM | > 50 µM | > 50 µM | > 50 µM | > 50 µM | > 50 µM | > 50 µM | > 50 µM | > 1.0 | > 50 µM | > 50 µM | –
C=C(C)[C@@H]1CC[C@]2(C(=O)OCc3ccccc3)CC[C@]3(C)C(CCC4[C@@]5(C)C=C(c6cccs6)C(=O)C(C)(C)C5CC[C@]43C)C12 (stereo partly shown) [Compound 10c, Benzyl 2-(2-Thiophenyl)-3-oxolupa-1,20(29)-dien-28-oate] | – | – | – | – | – | – | > 50 µM | – | – | > 50 µM | > 50 µM | > 50 µM | > 50 µM | > 50 µM | > 50 µM | > 50 µM | > 50 µM | > 1.0 | > 50 µM | > 50 µM | –
C=C(C)[C@@H]1CC[C@]2(C(=O)OCc3ccccc3)CC[C@]3(C)C(CCC4[C@@]5(C)C=C(c6ccncc6)C(=O)C(C)(C)C5CC[C@]43C)C12 (stereo partly shown) [Compound 10h, Benzyl 2-(4-Pyridinyl)-3-oxolupa-1,20(29)-dien-28-oate] | – | – | – | – | – | – | > 50 µM | – | – | > 50 µM | > 50 µM | > 50 µM | > 50 µM | > 50 µM | > 50 µM | > 50 µM | > 50 µM | > 1.0 | > 50 µM | > 50 µM | –
C=C(C)[C@@H]1CC[C@]2(C(=O)O)CC[C@]3(C)C(CCC4[C@@]5(C)C=C(c6ccncc6)C(=O)C(C)(C)C5CC[C@]43C)C12 (stereo partly shown) [Compound 11h, 2-(Pyridin-4-yl)-3-oxolupa-1,20(29)-dien-28-oic acid] | 11 µM | 17 µM | > 50 µM | 31 µM | 28 µM | 11 µM | 10.8 µM | > 50 µM | 25 µM | 10.8 µM | – | – | 30.6 µM | 28.4 µM | – | 25.1 µM | 21.3 µM | – | – | – | IC50 BJ ([1]; Table 1): below the detection limit; IC50 ([3]; Table 1): 21 µM; IC50 (CCRF-CEM; Table 1): 5.2 µM; SI (selectivity index) (CCRF-CEM; [5]): >9.5; IC50 (MRC-5 lung fibroblasts; Table 1): > 50 µM; IC50 MRC-5 (MRC-5 lung fibroblasts; Table 1): below the detection limit
C=C(C)[C@@H]1CC[C@]2(C(=O)O)CC[C@]3(C)C(CCC4[C@@]5(C)C=C(c6cncc7ccccc67)C(=O)C(C)(C)C5CC[C@]43C)C12 (stereo partly shown) [Compound 11l, 2-(Isoquinoline)-3-oxolupa-1,20(29)-dien-28-oic acid] | 8.7 µM | 17 µM | > 50 µM | 31 µM | 25 µM | 8.3 µM | – | > 50 µM | 19 µM | – | – | – | 30.8 µM | 24.8 µM | – | 18.5 µM | 13.9 µM | – | – | – | IC50 BJ ([1]; Table 1): below the detection limit; IC50 ([3]; Table 1): 14 µM; IC50 (CCRF-CEM; Table 1): 7.2 µM; SI (selectivity index) (CCRF-CEM; [5]): >7.0; IC50 (MRC-5 lung fibroblasts; Table 1): > 50 µM; IC50 MRC-5 (MRC-5 lung fibroblasts; Table 1): below the detection limit
CC1(C)C(=O)C(c2ccoc2)=C[C@@]2(C)C1CC[C@]1(C)C2CCC2C3[C@H]4OC[C@@]3(CCC4(C)C)CC[C@]21C (stereo partly drawn) [Compound 4b, 2-(Furan-3-yl)-19β,28-epoxyolean-1-en-3-one] | – | – | – | – | – | – | > 50 µM | – | – | > 50 µM | > 50 µM | > 50 µM | > 50 µM | > 50 µM | > 50 µM | > 50 µM | > 50 µM | > 1.0 | > 50 µM | > 50 µM | –
